Test results from PMC8388125, “Kinetic and Structural Characterization of the Self-Labeling Protein Tags HaloTag7, SNAP-tag, and CLIP-tag” (Biochemistry, 2021).
Changes are numbered by the printed parent chain.

Columns and labels:
SNAP-tag (SNAP) [1] = molecular target: T1, SNAP-tag (SNAP) (Homo sapiens, UniProt P16455, A127T/A154D/C150Q/C62A/G131K/G132T/G153L/K125A/K32I/L33F/M134L/N157G/Q115S/Q116H/R128A/R135S/S151G/S152D/S159E); test: SNAP labeling kinetics via microplate reader (FP over time); format: biochemical; settings: SNAP, plate reader, kinetic model 1
T1 construct: made in house; host or cells: E. coli BL21(DE3)-pLysS
T1 sequence (P16455 1-182 K32I/L33F/C62A/Q115S/Q116H/K125A/A127T/R128A/G131K/G132T/M134L/R135S/C150Q/S151G/S152D/G153L/A154D/N157G/S159E limits assumed): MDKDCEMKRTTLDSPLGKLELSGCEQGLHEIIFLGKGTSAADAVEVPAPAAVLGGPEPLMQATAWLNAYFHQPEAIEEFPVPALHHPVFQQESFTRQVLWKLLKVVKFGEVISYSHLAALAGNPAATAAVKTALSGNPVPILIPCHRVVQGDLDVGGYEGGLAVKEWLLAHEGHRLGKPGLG
Method: (§1) Labeling kinetics of SNAP and CLIP substrates were measured by recording FP over time using a microplate reader in a manner analogous to that of HT7 labeling kinetics described above with the following changes. The fluorescent substrate concentration was fixed to 20 nM, and protein concentrations were varied from 15 to 900 nM. Measurements were performed in SNAP-FP buffer.
(§2) Kinetic data from microplate reader assays were fitted to a simplified kinetic model (eq 13) described by differential eqs 14–16 using DynaFit. The dead time of the measurements and baseline FP value were put in as fixed parameters. Standard deviations (normal distribution verified) and confidence intervals of fitted parameters were estimated with the Monte Carlo method with standard settings (N = 1000, 5% worst fits discarded). In the case of BG, CP, and BC kinetics, the substrate concentration was fitted by DynaFit to rule out quantification errors of the BG, CP, or BC fluorophores. Accurate fitting of the concentration was ensured by including conditions under which protein is limiting and no maximum FP value was reached.

CLIP-tag (CLIP) = molecular target: T2, CLIP-tag (CLIP) (Homo sapiens, UniProt P16455, A121V/A127T/A154D/C150Q/C62A/G131N/G132T/G153S/K125A/K32I/L33F/M134L/M60I/N157P/Q115S/Q116H/R128A/R135D/S151G/S152D/S159L/Y114E); test: CLIP labeling kinetics via microplate reader (FP over time); format: biochemical; settings: CLIP, plate reader, kinetic model 1
T2 construct: made in house; host or cells: E. coli BL21(DE3)-pLysS
T2 sequence (P16455 1-182 K32I/L33F/M60I/C62A/Y114E/Q115S/Q116H/A121V/K125A/A127T/R128A/G131N/G132T/M134L/R135D/C150Q/S151G/S152D/G153S/A154D/N157P/S159L limits assumed): T1 sequence (P16455 1-182 K32I/L33F/C62A/Q115S/Q116H/K125A/A127T/R128A/G131K/G132T/M134L/R135S/C150Q/S151G/S152D/G153L/A154D/N157G/S159E limits assumed) with M60I, Y114E, A121V, K131N, S135D, L153S, G157P, E159L
Method: as §1, §2

[2] = molecular target: T3, hAGT (human O^6-alkylguanine-DNA alkyltransferase) (Homo sapiens, UniProt P16455); test: hAGT labeling kinetics via microplate reader (FP over time); format: biochemical
T3 construct: StrepTag-II (N); enterokinase cleavage site (N); His10 (C); made in house; host or cells: E. coli BL21(DE3)-pLysS
T3 sequence (P16455 1-207): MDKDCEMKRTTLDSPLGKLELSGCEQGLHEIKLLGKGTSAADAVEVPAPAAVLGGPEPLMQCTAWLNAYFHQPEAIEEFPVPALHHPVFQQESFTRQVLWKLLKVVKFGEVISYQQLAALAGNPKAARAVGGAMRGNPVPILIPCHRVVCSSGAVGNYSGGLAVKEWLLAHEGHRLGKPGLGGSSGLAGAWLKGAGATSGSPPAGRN
Method: as §1, §2

SNAP-tag (SNAP) [3] = molecular target: T1, SNAP-tag (SNAP); test: SNAP labeling kinetics via stopped flow (fluorescence anisotropy); format: biochemical; settings: model 2
Method: Labeling kinetics of SNAP with BG-TMR were measured via stopped-flow in a manner analogous to that for HT7 kinetics described above; however, the final substrate concentration was fixed at 2 μM, and the protein concentration was varied from 1.875 to 50 μM. The activity buffer was supplemented with 1 mM DTT.
Kinetic stopped-flow data were preprocessed using a custom R script.[36],[37] Recorded pretrigger time points were removed, and time points were adjusted to start at time zero. Values from replicates were averaged. The anisotropy of the free dye was calculated by averaging anisotropy values of the baseline measurements. Preprocessed data were fitted to a kinetic model (eqs 5 and 6) described by differential eqs 7–10 using the DynaFit software.[38] The anisotropy of the free dye and the mixing delay of the stopped-flow machine were set as fixed offset and delay parameters in DynaFit. It was assumed that the protein substrate complex and the reacted product are contributing equally to the anisotropy signal. […] Standard deviations (normal distribution verified) and confidence intervals of fitted parameters were estimated with the Monte Carlo method[39] with standard settings (N = 1000, 5% worst fits discarded). In the case of SNAP kinetics with BG-TMR, the substrate concentration was fitted by DynaFit to rule out quantification errors of the BG-quenched fluorophore. Accurate fitting of the concentration was ensured by including conditions in which protein is limiting and no maximum FP value was reached.

SNAP-tag (SNAP) [4] = molecular target: T1, SNAP-tag (SNAP); test: SNAP competitive labeling kinetics against BG-Alexa488; format: biochemical; settings: nonfluorescent substrates, competition with BG-Alexa488
Method: Competitive kinetics were measured by recording FP over time using a microplate reader in a manner analogous to that for HT7 competition kinetics described above using 100 nM BG-Alexa488 as the fluorescent substrate in SNAP-FP buffer.
Data were fitted to a simplified kinetic competition model (eqs 19 and 20) described by differential eqs 21–25 using DynaFit. The dead time of the measurements and baseline FP value were put in as fixed parameters. Standard deviations (normal distribution verified) and confidence intervals of fitted parameters were estimated with the Monte Carlo method with standard settings (N = 1000, 5% worst fits discarded). [drawing 19] 19 [drawing 20] 20 where P is the SLP protein, S is the fluorescent SLP substrate, I is the nonfluorescent SLP substrate (inhibitor), PS is the protein–fluorescent substrate conjugate, and PI is the protein–nonfluorescent substrate conjugate. [drawing 21] 21 [drawing 22] 22 [drawing 23] 23 [drawing 24] 24 [drawing 25] 25

SNAP^C145A = molecular target: T4, SNAP^C145A (Homo sapiens, UniProt P16455, A127T/A154D/C145A/C150Q/C62A/G131K/G132T/G153L/K125A/K32I/L33F/M134L/N157G/Q115S/Q116H/R128A/R135S/S151G/S152D/S159E); test: Affinity of SNAP^C145A for nonfluorescent substrates via FP competition assay against CP-TMR; format: binding; settings: FP competition against CP-TMR, room temperature
T4 construct: made in house; host or cells: E. coli BL21(DE3)-pLysS
T4 sequence (P16455 1-182 K32I/L33F/C62A/Q115S/Q116H/K125A/A127T/R128A/G131K/G132T/M134L/R135S/C145A/C150Q/S151G/S152D/G153L/A154D/N157G/S159E limits assumed): T1 sequence (P16455 1-182 K32I/L33F/C62A/Q115S/Q116H/K125A/A127T/R128A/G131K/G132T/M134L/R135S/C150Q/S151G/S152D/G153L/A154D/N157G/S159E limits assumed) with C145A
Method: Binding affinities of SNAP^C145A for BG, CP, BG-Ac, CP-Ac, and BC-Ac were obtained as previously described for HT7 by titrating 5 μM protein and 50 nM CP-TMR against nonfluorescent substrate concentrations ranging from 150 nM to 1.5 mM. Experimental conditions and data analysis were identical despite the fact that 1 mM DTT was added to the buffer and the assay was performed at room temperature.

kapp (value ± standard deviation) (SNAP-tag (SNAP) [1]) | kapp (value ± standard deviation) (CLIP-tag (CLIP)) | times slower labeling of hAGT than of SNAP ([2]; hAGT vs SNAP) | kapp (value ± standard deviation) ([2]; hAGT, plate reader, model 1) | fold higher k–1 than BG-TMR (SNAP-tag (SNAP) [3]) | k2 (± S.D.) (SNAP-tag (SNAP) [3]) | k-1 (± S.D.) (SNAP-tag (SNAP) [3]) | kapp (value ± standard deviation) (SNAP-tag (SNAP) [4]) | Kd (SNAP^C145A) | Structure (SMILES)
(7.69 ± 0.01) × 10^4 M^–1 s^–1 | (7.22 ± 0.04) × 10^0 M^–1 s^–1 | 20 times | (3.13 ± 0.01) × 10^3 M^–1 s^–1 | 8.8 fold | 1.58 (± 0.04) s-1 | 8.96 (± 0.71) s-1 | – | – | CN(C)c1ccc2c(-c3cc(C(=O)NCc4ccc(COc5cc(Cl)nc(N)n5)cc4)ccc3C(=O)[O-])c3ccc(=[N+](C)C)cc-3oc2c1 [CP-TMR]
– | – | – | – | – | – | – | (3.45 ± 0.38) × 10^3 M^–1 s^–1 | 201 µM | CC(=O)NCc1ccc(COc2cc(Cl)nc(N)n2)cc1 [CP-Ac]
